Test results from patent US8614223B2, “Pyrimidine hydroxy amide compounds as protein deacetylase inhibitors and methods of use thereof” (Acetylon Pharmaceuticals, Inc., priority 2010, dated 2013).

Key:
[1] = biological target: HDAC6 (Homo sapiens (Human), UniProt Q9UBN7); settings: read-out: HDAC6 IC50
[2] = biological target: HDAC2 (Homo sapiens (Human), UniProt Q92769); test: HDAC enzyme assay, HDAC2; settings: for HDAC2 fold over HDAC6 IC50 (selectivity for HDAC6): ratio HDAC2/HDAC6; for IC50: read-out: HDAC2 IC50
Chain of HDAC2 (Q92769 whole entry): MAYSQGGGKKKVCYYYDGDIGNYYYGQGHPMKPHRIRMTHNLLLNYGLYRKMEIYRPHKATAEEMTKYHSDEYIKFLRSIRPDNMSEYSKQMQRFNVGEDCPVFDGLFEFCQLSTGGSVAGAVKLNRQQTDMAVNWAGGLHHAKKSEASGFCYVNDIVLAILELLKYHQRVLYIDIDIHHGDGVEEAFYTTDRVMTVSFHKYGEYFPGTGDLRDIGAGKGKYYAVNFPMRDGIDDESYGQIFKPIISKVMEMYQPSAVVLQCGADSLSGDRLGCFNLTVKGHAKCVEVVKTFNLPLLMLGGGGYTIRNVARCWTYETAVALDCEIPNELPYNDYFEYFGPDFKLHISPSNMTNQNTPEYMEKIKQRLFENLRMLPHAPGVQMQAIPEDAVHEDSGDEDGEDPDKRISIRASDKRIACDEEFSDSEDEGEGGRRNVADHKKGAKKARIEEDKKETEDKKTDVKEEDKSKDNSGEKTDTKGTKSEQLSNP

[3] = biological target: HDAC3 (Homo sapiens (Human), UniProt O15379); test: HDAC enzyme assay, HDAC3; settings: for HDAC3 fold over HDAC6 IC50 (selectivity for HDAC6): ratio HDAC3/HDAC6; for IC50: read-out: HDAC3 IC50
Chain of HDAC3 (O15379 whole entry): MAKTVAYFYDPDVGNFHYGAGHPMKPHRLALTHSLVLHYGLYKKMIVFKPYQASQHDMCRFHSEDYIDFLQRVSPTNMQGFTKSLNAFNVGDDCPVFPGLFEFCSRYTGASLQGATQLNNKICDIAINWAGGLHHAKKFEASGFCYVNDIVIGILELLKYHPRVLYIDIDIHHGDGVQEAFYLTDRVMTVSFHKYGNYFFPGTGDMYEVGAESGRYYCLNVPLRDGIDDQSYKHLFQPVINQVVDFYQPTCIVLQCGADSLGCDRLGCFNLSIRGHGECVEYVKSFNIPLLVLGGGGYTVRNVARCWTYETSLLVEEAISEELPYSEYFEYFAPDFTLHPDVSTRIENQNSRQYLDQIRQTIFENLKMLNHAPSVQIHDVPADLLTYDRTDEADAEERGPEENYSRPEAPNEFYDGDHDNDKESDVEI
Chain of HDAC3 (Q9Y618 395-489 partner): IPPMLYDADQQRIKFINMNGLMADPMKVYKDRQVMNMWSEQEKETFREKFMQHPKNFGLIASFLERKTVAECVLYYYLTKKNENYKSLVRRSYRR

[4] = biological target: HDAC1 (Homo sapiens (Human), UniProt Q13547); test: HDAC enzyme assay, HDAC1; settings: for HDAC1 fold over HDAC6 IC50 (selectivity for HDAC6): ratio HDAC1/HDAC6; for IC50: read-out: HDAC1 IC50
Chain of HDAC1 (Q13547 whole entry): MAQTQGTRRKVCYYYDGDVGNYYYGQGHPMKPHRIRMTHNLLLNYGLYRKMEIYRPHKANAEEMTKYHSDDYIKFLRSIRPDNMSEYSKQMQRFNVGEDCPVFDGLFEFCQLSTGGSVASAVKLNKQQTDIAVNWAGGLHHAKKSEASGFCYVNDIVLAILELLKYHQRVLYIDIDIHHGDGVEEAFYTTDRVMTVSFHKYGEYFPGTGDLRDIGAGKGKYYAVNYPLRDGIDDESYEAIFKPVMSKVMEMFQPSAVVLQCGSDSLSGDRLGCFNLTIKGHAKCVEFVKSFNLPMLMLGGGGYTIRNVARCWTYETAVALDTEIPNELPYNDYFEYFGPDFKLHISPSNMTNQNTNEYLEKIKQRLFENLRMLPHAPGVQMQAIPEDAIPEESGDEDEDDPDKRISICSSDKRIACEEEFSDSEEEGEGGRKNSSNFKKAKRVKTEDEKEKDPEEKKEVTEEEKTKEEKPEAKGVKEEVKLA

Chain of HDAC6 (Q9UBN7 whole entry): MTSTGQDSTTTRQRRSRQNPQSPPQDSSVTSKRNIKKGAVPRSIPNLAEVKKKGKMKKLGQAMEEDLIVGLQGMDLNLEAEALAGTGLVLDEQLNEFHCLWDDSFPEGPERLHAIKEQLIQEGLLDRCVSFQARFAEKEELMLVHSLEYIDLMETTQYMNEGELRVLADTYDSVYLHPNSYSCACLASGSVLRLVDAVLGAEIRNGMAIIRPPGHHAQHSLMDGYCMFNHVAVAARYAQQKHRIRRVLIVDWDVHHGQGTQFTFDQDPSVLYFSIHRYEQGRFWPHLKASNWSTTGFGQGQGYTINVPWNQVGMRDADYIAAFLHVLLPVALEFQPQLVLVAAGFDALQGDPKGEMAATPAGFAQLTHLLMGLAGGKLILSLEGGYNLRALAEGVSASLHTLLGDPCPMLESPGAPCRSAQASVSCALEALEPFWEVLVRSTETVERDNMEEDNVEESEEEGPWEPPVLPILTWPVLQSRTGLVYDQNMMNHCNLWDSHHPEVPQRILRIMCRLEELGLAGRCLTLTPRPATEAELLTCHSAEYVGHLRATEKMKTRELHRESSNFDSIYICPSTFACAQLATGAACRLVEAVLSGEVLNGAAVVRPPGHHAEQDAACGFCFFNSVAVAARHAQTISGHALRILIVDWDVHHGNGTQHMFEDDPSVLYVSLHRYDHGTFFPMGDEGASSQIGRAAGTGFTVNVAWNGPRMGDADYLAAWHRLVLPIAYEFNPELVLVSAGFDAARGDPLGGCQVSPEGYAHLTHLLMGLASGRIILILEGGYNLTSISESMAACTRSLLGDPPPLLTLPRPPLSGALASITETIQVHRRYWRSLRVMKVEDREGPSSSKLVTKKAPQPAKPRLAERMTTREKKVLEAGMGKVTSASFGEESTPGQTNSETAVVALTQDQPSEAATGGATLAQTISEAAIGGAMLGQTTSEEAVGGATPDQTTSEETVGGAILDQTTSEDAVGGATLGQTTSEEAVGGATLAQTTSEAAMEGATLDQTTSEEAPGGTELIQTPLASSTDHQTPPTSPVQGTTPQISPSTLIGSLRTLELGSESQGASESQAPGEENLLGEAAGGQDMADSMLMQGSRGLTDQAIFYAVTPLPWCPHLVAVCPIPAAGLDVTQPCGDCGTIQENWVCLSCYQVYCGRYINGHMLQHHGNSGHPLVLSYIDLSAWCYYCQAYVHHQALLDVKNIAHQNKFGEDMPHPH

SMILES | IC50 [1] | HDAC2 fold over HDAC6 IC50 (selectivity for HDAC6) [2] | IC50 [2] | HDAC3 fold over HDAC6 IC50 (selectivity for HDAC6) [3] | IC50 [3] | HDAC1 fold over HDAC6 IC50 (selectivity for HDAC6) [4] | IC50 [4]
CC(C)(Nc1ncc(C(=O)NO)cn1)c1ccc(F)cc1 [Compound 68] | 3 nM | (362.4x) | 1080 nM | (495.3x) | 1480 nM | (254.8x) | 761 nM
O=C(NO)c1cnc(Nc2cccc(Cl)c2)nc1 [Compound 17] | 5 nM | (29.6x) | 161 nM | (36.5x) | 198 nM | (33.5x) | 182 nM
CC(C)(Nc1ncc(C(=O)NO)cn1)c1ccc(C(F)(F)F)cc1 [Compound 74] | 6 nM | (168.4x) | 1020 nM | (394.2x) | 2380 nM | (147.5x) | 889 nM
O=C(NO)c1cnc(NCc2ccccc2C(F)(F)F)nc1 [Compound 38] | 7 nM | (103.5x) | 720 nM | (128.1x) | 891 nM | (67.5x) | 470 nM
O=C(NO)c1cnc(NCc2ccccc2)nc1 [Compound 35] | 2 nM | (76.2x) | 140 nM | (70x) | 128 nM | (42.3x) | 77 nM
O=C(NO)c1cnc(Nc2cccc(N3CCOCC3)c2)nc1 [Compound 29] | 8 nM | (106x) | 808 nM | (68.2x) | 520 nM | (60.9x) | 464 nM
CC(Nc1ncc(C(=O)NO)cn1)(c1ccccc1)c1ccccc1 [Compound 79] | 6 nM | (319.8x) | 1830 nM | (817.2x) | 4680 nM | (221.6x) | 1270 nM
O=C(NO)c1cnc(Nc2ccccc2Cl)nc1 [Compound 7] | 42 nM | (14.9x) | 629 nM | (14.4x) | 606 nM | (9.9x) | 415 nM
Cc1cccc(C)c1CNc1ncc(C(=O)NO)cn1 [Compound 54] | 21 nM | (98.9x) | 2100 nM | (73.7x) | 1570 nM | (64.4x) | 1370 nM
O=C(NO)c1cnc(NCc2ccc(C(F)(F)F)cc2)nc1 [Compound 37] | 5 nM | (25.4x) | 127 nM | (29.8x) | 149 nM | (17.8x) | 89 nM
COc1cc(Nc2ncc(C(=O)NO)cn2)cc(OC)c1 [Compound 23] | 3 nM | (134x) | 343 nM | (100.2x) | 257 nM | (60.4x) | 155 nM
O=C(NO)c1cnc(Nc2cc(Cl)cc(C(F)(F)F)c2)nc1 [Compound 25] | 10 nM | (92.6x) | 938 nM | (81.9x) | 830 nM | (50.9x) | 516 nM
Cc1ccc(Nc2ncc(C(=O)NO)cn2)cc1 [Compound 4] | 9 nM | (32.8x) | 290 nM | (32.9x) | 291 nM | (22x) | 195 nM
Cc1cc(C)cc(Nc2ncc(C(=O)NO)cn2)c1 [Compound 19] | 4 nM | (131.7x) | 478 nM | (88x) | 319 nM | (69.1x) | 251 nM
COc1ccc(Nc2ncc(C(=O)NO)cn2)cc1 [Compound 5] | 15 nM | (26x) | 395 nM | (27.8x) | 421 nM | (16.3x) | 247 nM
O=C(NO)c1cnc(NCc2ccc(Cl)cc2)nc1 [Compound 36] | 2 nM | (31.2x) | 71 nM | (33x) | 75 nM | (17.5x) | 40 nM
O=C(NO)c1cnc(NCc2cccc(C(F)(F)F)c2)nc1 [Compound 40] | 2 nM | (28.7x) | 56 nM | (36.2x) | 70 nM | (19.8x) | 38 nM
O=C(NO)c1cnc(NCc2ccccc2-c2ccccc2)nc1 [Compound 55] | 8 nM | (76.8x) | 587 nM | (82.6x) | 631 nM | (60.2x) | 460 nM

Results, then the compound that gave them:

IC50 [1] | HDAC2 fold over HDAC6 IC50 (selectivity for HDAC6) [2] | IC50 [2] | HDAC3 fold over HDAC6 IC50 (selectivity for HDAC6) [3] | IC50 [3] | HDAC1 fold over HDAC6 IC50 (selectivity for HDAC6) [4] | IC50 [4] | SMILES
4 nM | (92.1x) | 361 nM | (92x) | 361 nM | (54.5x) | 214 nM | O=C(NO)c1cnc(NCc2cccs2)nc1 [Compound 105]
2 nM | (3.9x) | 9 nM | (9.8x) | 22 nM | (3.2x) | 7 nM | O=C(NO)c1cnc(NC2(c3cc(C(F)(F)F)ccc3F)CC2)nc1 [Compound 126]
5 nM | (68.4x) | 330 nM | (367.7x) | 1780 nM | (66.1x) | 320 nM | O=C(NO)c1cnc(NC2(c3ccc(F)cc3)CCOCC2)nc1 [Compound 150]
49 nM | (24.1x) | 1170 nM | (24x) | 1170 nM | (16.7x) | 813 nM | O=C(NO)c1cnc(NC2CCOCC2)nc1 [Compound 104]
2 nM | (3.7x) | 9 nM | (8x) | 19 nM | (2.7x) | 60 nM | O=C(NO)c1cnc(NCc2ccc(-c3ccccc3)cc2)nc1 [Compound 107]
3 nM | (152.9x) | 483 nM | (229.8x) | 727 nM | (188x) | 594 nM | COc1ccccc1C1(Nc2ncc(C(=O)NO)cn2)CC1 [Compound 133]
2 nM | (8.9x) | 17 nM | (24.8x) | 49 nM | (8.1x) | 16 nM | O=C(NO)c1cnc(NC2(c3ccc4c(c3)OCO4)CC2)nc1 [Compound 128]
4 nM | (75.6x) | 320 nM | (81.5x) | 345 nM | (47.3x) | 200 nM | O=C(NO)c1cnc(NC2(c3ccco3)CC2)nc1 [Compound 99]
4 nM | (36.5x) | 133 nM | (47.7x) | 174 nM | (25.3x) | 92 nM | O=C(NO)c1cnc(NCc2cccnc2)nc1 [Compound 106]
33 nM | (68x) | 2240 nM | (134.4x) | 4420 nM | (41.3x) | 1360 nM | CC(C)(Nc1ncc(C(=O)NO)cn1)c1cc(C(F)(F)F)cc(C(F)(F)F)c1 [Compound 92]
19 nM | (40.5x) | 767 nM | (70x) | 1330 nM | (48x) | 911 nM | O=C(NO)c1cnc(NC2c3ccccc3-c3ccccc32)nc1 [Compound 111]
1 nM | (26.2x) | 36 nM | (30.2x) | 41 nM | (19.9x) | 27 nM | O=C(NO)c1cnc(NC2(c3ccccc3Cl)CC2)nc1 [Compound 90]
